Assay results from the kinase profiling compilation of Christmann-Franck et al. (2016).

Legend:
Assay in all cases: KINOMEscan competition binding
Conditions in all cases: compound 10.0 µM
[1] = tested on: RET (human), P07949 [V804M]
[2] = tested on: EGFR (human), P00533 [T790M]
[3] = tested on: EGFR (human), P00533 [752-759 del]
[4] = tested on: EGFR (human), P00533 [T790M/L858R]
[5] = tested on: MET (human), P08581 [Y1235D]
[6] = tested on: RET (human), P07949 [M918T]
[7] = tested on: FLT3 (human), P36888 [D835H]
[8] = tested on: KIT (human), P10721 [L576P]
Sequence of KIT (human), P10721 [L576P] (P10721 whole entry L576P, looked up): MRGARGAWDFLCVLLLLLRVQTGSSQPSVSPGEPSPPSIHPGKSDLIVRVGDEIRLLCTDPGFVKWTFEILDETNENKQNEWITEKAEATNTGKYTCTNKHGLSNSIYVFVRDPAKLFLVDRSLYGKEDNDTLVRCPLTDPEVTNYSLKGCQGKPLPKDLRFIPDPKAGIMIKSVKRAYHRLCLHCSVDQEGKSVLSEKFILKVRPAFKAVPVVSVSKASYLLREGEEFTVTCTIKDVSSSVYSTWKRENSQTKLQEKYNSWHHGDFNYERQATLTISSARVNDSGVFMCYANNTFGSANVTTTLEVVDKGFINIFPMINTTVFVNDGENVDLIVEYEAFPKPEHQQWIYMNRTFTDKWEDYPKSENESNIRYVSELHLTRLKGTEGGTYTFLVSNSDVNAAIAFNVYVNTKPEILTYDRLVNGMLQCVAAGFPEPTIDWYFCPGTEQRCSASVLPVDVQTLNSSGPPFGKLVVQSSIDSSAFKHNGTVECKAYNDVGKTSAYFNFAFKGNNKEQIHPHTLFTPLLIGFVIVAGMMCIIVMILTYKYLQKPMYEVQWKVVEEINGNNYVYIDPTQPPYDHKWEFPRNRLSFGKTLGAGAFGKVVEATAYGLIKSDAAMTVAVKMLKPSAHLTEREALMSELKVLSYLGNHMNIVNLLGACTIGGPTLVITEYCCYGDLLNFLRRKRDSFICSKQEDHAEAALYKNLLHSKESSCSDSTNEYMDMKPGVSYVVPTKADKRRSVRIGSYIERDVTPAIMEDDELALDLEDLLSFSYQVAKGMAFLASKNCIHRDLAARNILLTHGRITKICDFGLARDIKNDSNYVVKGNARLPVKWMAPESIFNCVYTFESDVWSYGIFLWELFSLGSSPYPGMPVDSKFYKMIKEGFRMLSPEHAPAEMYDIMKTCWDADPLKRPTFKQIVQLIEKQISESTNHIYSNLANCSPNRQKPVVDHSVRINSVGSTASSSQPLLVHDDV

[9] = tested on: EGFR (human), P00533 [747-751 del / S ins]
[10] = tested on: ABL1 (human), P00519 [Y253F]
[11] = tested on: ALK (human), Q9UM73 [C1156Y]
Sequence of ALK (human), Q9UM73 [C1156Y] (Q9UM73 whole entry C1156Y, looked up): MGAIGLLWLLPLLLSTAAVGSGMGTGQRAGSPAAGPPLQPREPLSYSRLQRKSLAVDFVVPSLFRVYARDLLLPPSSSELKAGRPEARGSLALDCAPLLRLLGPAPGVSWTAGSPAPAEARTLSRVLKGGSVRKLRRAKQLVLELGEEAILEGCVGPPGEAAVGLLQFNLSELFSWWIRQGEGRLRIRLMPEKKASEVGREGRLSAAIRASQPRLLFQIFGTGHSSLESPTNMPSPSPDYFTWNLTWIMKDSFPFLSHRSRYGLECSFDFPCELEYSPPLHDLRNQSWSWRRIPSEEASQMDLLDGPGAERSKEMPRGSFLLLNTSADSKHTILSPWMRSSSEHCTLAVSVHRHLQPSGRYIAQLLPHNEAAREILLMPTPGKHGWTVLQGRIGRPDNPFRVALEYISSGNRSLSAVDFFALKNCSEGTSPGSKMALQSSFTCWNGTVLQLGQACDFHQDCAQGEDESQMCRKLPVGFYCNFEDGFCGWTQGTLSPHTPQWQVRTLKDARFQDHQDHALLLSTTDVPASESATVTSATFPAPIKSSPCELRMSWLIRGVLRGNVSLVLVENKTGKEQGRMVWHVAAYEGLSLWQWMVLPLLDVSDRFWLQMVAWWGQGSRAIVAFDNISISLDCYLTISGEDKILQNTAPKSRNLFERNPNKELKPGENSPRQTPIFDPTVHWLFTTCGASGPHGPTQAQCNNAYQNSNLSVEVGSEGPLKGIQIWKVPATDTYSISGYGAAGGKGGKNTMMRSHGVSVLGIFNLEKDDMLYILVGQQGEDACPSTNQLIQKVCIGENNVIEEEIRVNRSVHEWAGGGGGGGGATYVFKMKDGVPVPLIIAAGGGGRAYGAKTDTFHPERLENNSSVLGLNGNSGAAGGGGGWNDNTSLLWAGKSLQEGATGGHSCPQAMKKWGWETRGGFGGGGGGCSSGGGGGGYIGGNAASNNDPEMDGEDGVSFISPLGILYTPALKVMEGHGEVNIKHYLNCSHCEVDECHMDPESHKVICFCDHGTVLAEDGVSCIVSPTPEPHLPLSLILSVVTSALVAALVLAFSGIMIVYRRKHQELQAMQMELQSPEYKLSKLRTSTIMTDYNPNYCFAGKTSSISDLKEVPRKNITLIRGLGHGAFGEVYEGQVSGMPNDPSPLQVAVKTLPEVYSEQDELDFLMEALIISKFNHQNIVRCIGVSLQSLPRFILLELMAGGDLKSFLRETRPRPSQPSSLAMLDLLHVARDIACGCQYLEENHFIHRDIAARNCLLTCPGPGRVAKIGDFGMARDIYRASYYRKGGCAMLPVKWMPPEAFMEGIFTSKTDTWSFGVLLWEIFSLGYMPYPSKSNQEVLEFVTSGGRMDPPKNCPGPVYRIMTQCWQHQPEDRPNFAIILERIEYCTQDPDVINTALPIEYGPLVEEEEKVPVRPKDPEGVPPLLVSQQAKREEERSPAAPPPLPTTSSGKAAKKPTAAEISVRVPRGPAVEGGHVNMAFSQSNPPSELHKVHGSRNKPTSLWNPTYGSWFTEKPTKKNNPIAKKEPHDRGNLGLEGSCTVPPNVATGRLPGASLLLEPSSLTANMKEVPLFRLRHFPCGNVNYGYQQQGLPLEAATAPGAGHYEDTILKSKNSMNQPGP

[12] = tested on: KIT (human), P10721 [V559D/V654A]
Sequence of KIT (human), P10721 [V559D/V654A] (P10721 whole entry V559D/V654A, looked up): as the sequence (P10721 whole entry L576P, looked up) above, with V559D, P576L, V654A counted along it

[13] = tested on: ALK (human), Q9UM73 [L1196M]
Sequence of ALK (human), Q9UM73 [L1196M] (Q9UM73 whole entry L1196M, looked up): as the sequence (Q9UM73 whole entry C1156Y, looked up) above, with Y1156C, L1196M counted along it

[14] = tested on: FLT3 (human), P36888 [R834Q]
[15] = tested on: ABL1 (human), P00519 [H396P]

Sequence of RET (human), P07949 [V804M] (P07949 whole entry V804M, looked up): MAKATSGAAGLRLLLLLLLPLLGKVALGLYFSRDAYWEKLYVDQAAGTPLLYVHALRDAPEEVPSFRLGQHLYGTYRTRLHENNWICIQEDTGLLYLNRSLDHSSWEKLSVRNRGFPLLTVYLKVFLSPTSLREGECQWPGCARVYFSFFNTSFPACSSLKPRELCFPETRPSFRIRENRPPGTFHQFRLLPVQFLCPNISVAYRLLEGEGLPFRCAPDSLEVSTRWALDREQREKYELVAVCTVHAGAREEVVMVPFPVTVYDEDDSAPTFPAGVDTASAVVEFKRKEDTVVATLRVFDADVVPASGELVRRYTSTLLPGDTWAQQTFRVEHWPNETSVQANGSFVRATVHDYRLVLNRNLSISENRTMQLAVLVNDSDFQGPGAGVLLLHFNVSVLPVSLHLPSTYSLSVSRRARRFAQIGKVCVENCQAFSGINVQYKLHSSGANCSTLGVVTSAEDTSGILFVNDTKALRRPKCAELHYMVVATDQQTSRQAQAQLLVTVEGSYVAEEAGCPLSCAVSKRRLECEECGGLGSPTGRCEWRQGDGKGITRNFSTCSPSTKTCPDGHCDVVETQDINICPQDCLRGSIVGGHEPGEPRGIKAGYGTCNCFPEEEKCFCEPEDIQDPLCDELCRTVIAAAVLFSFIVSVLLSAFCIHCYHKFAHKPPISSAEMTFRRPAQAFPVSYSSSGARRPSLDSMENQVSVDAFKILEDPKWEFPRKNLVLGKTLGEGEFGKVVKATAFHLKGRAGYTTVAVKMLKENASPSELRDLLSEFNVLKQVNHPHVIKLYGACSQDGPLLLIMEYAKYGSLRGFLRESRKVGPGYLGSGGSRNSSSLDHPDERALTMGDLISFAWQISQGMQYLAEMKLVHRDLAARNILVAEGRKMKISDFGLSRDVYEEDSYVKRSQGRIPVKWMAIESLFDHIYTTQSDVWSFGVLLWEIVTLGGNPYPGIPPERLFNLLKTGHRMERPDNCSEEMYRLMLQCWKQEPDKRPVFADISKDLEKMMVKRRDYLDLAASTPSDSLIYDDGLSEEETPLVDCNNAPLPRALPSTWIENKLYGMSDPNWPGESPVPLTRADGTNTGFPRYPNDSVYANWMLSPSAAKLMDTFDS
Sequence of RET (human), P07949 [M918T] (P07949 whole entry M918T, looked up): as the sequence (P07949 whole entry V804M, looked up) above, with M804V, M918T counted along it

Structure (SMILES) | kinase still bound, per cent of control [1] [%] | kinase still bound, per cent of control [2] [%] | kinase still bound, per cent of control [3] [%] | kinase still bound, per cent of control [4] [%] | kinase still bound, per cent of control [5] [%] | kinase still bound, per cent of control [6] [%] | kinase still bound, per cent of control [7] [%] | kinase still bound, per cent of control [8] [%] | kinase still bound, per cent of control [9] [%] | kinase still bound, per cent of control [10] [%] | kinase still bound, per cent of control [11] [%] | kinase still bound, per cent of control [12] [%] | kinase still bound, per cent of control [13] [%] | kinase still bound, per cent of control [14] [%] | kinase still bound, per cent of control [15] [%]
O=c1[nH]c2ccccc2n1C1CCN(Cc2ccc(-c3nc4cc5[nH]cnc5cc4nc3-c3ccccc3)cc2)CC1 | 91 | 67 | 58 | 100 | 68 | 79 | 74 | 87 | 92 | 72 | 55 | 92 | 64 | 100 | 
COc1cc2ncnc(Nc3cccc(Cl)c3)c2cc1OC | 94 | 1.3 | 2.5 | 22 | 100 | 3.4 | 15 | 56 | 3.2 | 2.3 | 31 | 82 | 63 | 58 | 
CCC(=O)N1CCN(c2ccc(-n3c(=O)ccc4cnc5ccc(-c6cnc7ccccc7c6)cc5c43)cc2C(F)(F)F)CC1 | 69 | 100 | 84 | 100 | 100 | 51 | 18 | 48 | 80 |  |  |  |  |  | 68
